Assay results reported in patent US20240101573A1, “MACROCYCLIC K-RAS G12C INHIBITOR, PREPARATION METHOD THEREFOR AND USE THEREOF” (Abbisko Therapeutics Co., Ltd., priority 2020, published 2024).

Assays:
H358 = assay: Anti-proliferation 2D CTG test (H358); assay type: cell-based; details: H358 cells, 1500 cells/well, 5 days incubation with compound, CTG readout
Method in brief: (§1)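 H358 (1500 cells/well) and MIA PaCa-2 (500 cells/well) seeded overnight, then treated 5 days at 37 °C with 10-point 1:3 dilutions, top final […], 0.5% DMSO. Viability by CellTiter-Glo luminescence; IC50 from four-parameter fit normalized to plate controls.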

MIA PaCa-2 = assay: Anti-proliferation 2D CTG test (MIA PaCa-2); assay type: cell-based; details: MIAPACA-2 cells, 500 cells/well, 5 days incubation with compound, CTG readout
Method in brief: as §1

SMILES | IC50 (H358) [nM] | IC50 (MIA PaCa-2) [nM] | IC50 (H358; Homo sapiens, NCI-H358, 120 h) [nM] | IC50 (MIA PaCa-2; Homo sapiens, MIA PaCa-2, 120 h) [nM]
C=CC(=O)N1CCN(c2nc(=O)n3c4nc(c(F)cc24)-c2c(ccc(Cl)c2F)OCC(O)C(OCC)c2ccnc(C(C)C)c2-3)[C@@H](C)C1 (stereo partly drawn) [Example 68, 2^4-((S)-4-acryloyl-2-methylpiperazin-1-yl)-3^5-chloro-7-ethoxy-2^6,3^6-difluoro-6-hydroxy-1^2-isopropyl-2^1,2^2-dihydro-4-oxa-2(1,7)-pyrido[2,3-d]pyrimidina-1(3,4)-pyridina-3(1,2)-benzocycloheptane-2^2-one] | 27 | 22 |  | 
C=CC(=O)N1CCN(c2nc(=O)n3c4nc(c(F)cc24)-c2c(ccc(Cl)c2F)OCC(OCC)C(O)c2ccnc(C(C)C)c2-3)[C@@H](C)C1 (stereo partly drawn) [Example 69, 2^4-((S)-4-acryloyl-2-methylpiperazin-1-yl)-3^5-chloro-6-ethoxy-2^6,3^6-difluoro-7-hydroxy-1^2-isopropyl-2^1,2^2-dihydro-4-oxa-2(1,7)-pyrido[2,3-d]pyrimidina-1(3,4)-pyridina-3(1,2)-benzocycloheptane-2^2-one] | 31 | 26 |  | 
C=CC(=O)N1C[C@H](C)N(c2nc(=O)n3c4nc(c(F)cc24)-c2c(ccc(Cl)c2F)OCC(O)C(OCC)c2ccnc(C(C)C)c2-3)C[C@H]1C (stereo partly drawn) [Example 70, 2^4-((2S,5R)-4-acryloyl-2,5-dimethylpiperazin-1-yl)-3^5-chloro-7-ethoxy-2^6,3^6-difluoro-6-hydroxy-1^2-isopropyl-2^1,2^2-dihydro-4-oxa-2(1,7)-pyrido[2,3-d]pyrimidina-1(3,4)-pyridina-3(1,2)-benzocycloheptane-2^2-one] | 16 | 7 |  | 
C=CC(=O)N1C[C@H](C)N(c2nc(=O)n3c4nc(c(F)cc24)-c2c(ccc(Cl)c2F)OCC(OCC)C(O)c2ccnc(C(C)C)c2-3)C[C@H]1C (stereo partly drawn) [Example 71, 2^4-((2S,5R)-4-acryloyl-2,5-dimethylpiperazin-1-yl)-3^5-chloro-6-ethoxy-2^6,3^6-difluoro-7-hydroxy-1^2-isopropyl-2^1,2^2-dihydro-4-oxa-2(1,7)-pyrido[2,3-d]pyrimidina-1(3,4)-pyridina-3(1,2)-benzocycloheptane-2^2-one] | 8 | 3 |  | 
C=CC(=O)N1CCN(c2nc(=O)n3c4nc(c(F)cc24)-c2c(ccc(Cl)c2F)OCC(O)C(OCC)c2ccnc(C(C)C)c2-3)[C@@H](C)C1 (stereo partly drawn) [Example 72, (R)-2^4-((S)-4-acryloyl-2-methylpiperazin-1-yl)-3^5-chloro-7-ethoxy-2^6,3^6-difluoro-6-hydroxy-1^2-isopropyl-2^1,2^2-dihydro-4-oxa-2(1,7)-pyrido[2,3-d]pyrimidina-1(3,4)-pyridina-3(1,2)-benzocycloheptane-2^2-one] | 7 | 6 |  | 
C=CC(=O)N1CCN(c2nc(=O)n3c4nc(c(F)cc24)-c2c(ccc(Cl)c2F)OCC(OCC)C(O)c2ccnc(C(C)C)c2-3)[C@@H](C)C1 (stereo partly drawn) [Example 75, (R)-2^4-((S)-4-acryloyl-2-methylpiperazin-1-yl)-3^5-chloro-6-ethoxy-2^6,3^6-difluoro-7-hydroxy-1^2-isopropyl-2^1,2^2-dihydro-4-oxa-2(1,7)-pyrido[2,3-d]pyrimidina-1(3,4)-pyridina-3(1,2)-benzocycloheptane-2^2-one] | 3 | 6 |  | 
C=CC(=O)N1C[C@H](C)N(c2nc(=O)n3c4nc(c(F)cc24)-c2c(ccc(Cl)c2F)OCC(O)C(OCC)c2ccnc(C(C)C)c2-3)C[C@H]1C (stereo partly drawn) [Example 76, (R)-2^4-((2S,5R)-4-acryloyl-2,5-dimethylpiperazin-1-yl)-3^5-chloro-7-ethoxy-2^6,3^6-difluoro-6-hydroxy-1^2-isopropyl-2^1,2^2-dihydro-4-oxa-2(1,7)-pyrido[2,3-d]pyrimidina-1(3,4)-pyridina-3(1,2)-benzocycloheptane-2^2-one] | 4 | 4 |  | 
C=CC(=O)N1C[C@H](C)N(c2nc(=O)n3c4nc(c(F)cc24)-c2c(ccc(Cl)c2F)OCC(OCC)C(O)c2ccnc(C(C)C)c2-3)C[C@H]1C (stereo partly drawn) [Example 78, (R)-2^4-((2S,5R)-4-acryloyl-2,5-dimethylpiperazin-1-yl)-3^5-chloro-6-ethoxy-2^6,3^6-difluoro-7-hydroxy-1^2-isopropyl-2^1,2^2-dihydro-4-oxa-2(1,7)-pyrido[2,3-d]pyrimidina-1(3,4)-pyridina-3(1,2)-benzocycloheptane-2^2-one] | 5 | 3 |  | 
C=CC(=O)N1CCN(c2nc(=O)n3c4nc(c(F)cc24)-c2c(F)cccc2OCCCc2ccnc(C(C)C)c2-3)[C@@H](C)C1 [Positive compound, reference compound] |  |  | 8 | 11
